Source: US9226905B2 (SAMSUNG ELECTRONICS CO., LTD., priority 2011, dated 2016)

Legend:
[1] = test system: blood creatine kinase level; assay: Measurement of blood creatine kinase (CK) level; conditions: administered for 3 months
[2] = Water intake of mice on administration of autoclaved DDS; conditions: male mice, at 4-day intervals for 3 months
bacterial growth = assay: Bacterial growth inhibitory activity of autoclaved DDS; assay type: cell-based; conditions: DDS added to bacterial medium and autoclaved, compared with control
Experimental: Specifically, DDS was added to a bacterial medium and autoclaved, and then compared with a control.

grip strength of mice = assay: Measurement of grip strength; assay type: in vivo, C57BL/6J mice; conditions: 2 mg/kg, 3 months
Experimental: To measure the grip strength of the mice, a grip strength meter (Bioseb) was used. The grip strength of the mice was measured by positioning the mice to grab the grid plate with the forelimbs, slowly pulling the tail in a horizontal direction, and determining the value at the time at which the forelimbs were detached from the grid.

[3] = test system: soleus (SOL) and extensor digitorum longus (EDL) muscle weight; assay: Muscle weight of SOL and EDL; assay type: in vivo, C57BL/6J mice; conditions: aged mice (23-month-old and 30-month-old), female and male, 2 mg/kg, 3 months
Experimental: (§1) In order to separate muscle from the mice, the mice were anesthetized by injection with sodium pentobarbital (100 mg/kg body weight). One soleus (SOL) and one extensor digitorum longus (EDL) were carefully separated from the hindlimb of each mouse, so that the muscle was not damaged, and the weight of each of the separated muscles was measured.

[4] = test system: gastrocnemius (GA) and tibialis anterior (TA) muscle weight; assay: Muscle weight of GA and TA; assay type: in vivo, C57BL/6J mice; conditions: aged mice (23-month-old and 30-month-old), female and male, 2 mg/kg, 3 months
Experimental: as §1, with “bodyweight).” for “body weight).”, “gastrocnemius (GA)” for “soleus (SOL)”, “tibialis anterior (TA)” for “extensor digitorum longus (EDL)”

[5] = test system: mouse muscles (SOL and EDL); assay: Measurement of twitch isometric force; assay type: in vivo, C57BL/6J mice; conditions: SOL and EDL separated from treated mice, 0.2 Hz (100V) twitch stimulation
Experimental: One end of the tendons was anchored to a tissue bath, which was filled with Ringer's solution and to which oxygen was smoothly supplied, and the other end was anchored to a FT03 isometric force transducer (Grass instruments, West Warwick, USA). The twitch and tetanus of the muscle were adjusted by the intensity of electric stimulation. The muscle was stabilized in Ringer's solution for 10 minutes, and then an experiment for muscle contraction function was carried out. To maximize the function of the muscle, the length of the muscle showing the highest response at 0.2 Hz (100V), twitch stimulation, was measured and assigned as Lo.

[6] = test system: mouse muscles (SOL and EDL); assay: Measurement of tetanus isometric force; assay type: in vivo, C57BL/6J mice; conditions: SOL 150 Hz, 100V, 800 ms, EDL 100 Hz, 400 ms
Source text: In the muscle contraction stimulation system, SOL muscle formed the peak plateau under the conditions of 150 Hz, 100 V and 800 ms. […] In this Example, the mice used in Example 6 were used. The mice were rested for a sufficient time after twitch stimulation, and then tetanic stimulation was applied to the mice. As stimulation at the time of formation of a stable graph in which the peak forms the plateau, 150 Hz (100V, 800 ms stimulation time) was used for Soleus, and 100 Hz (100V, 400 ms stimulation time) was used for EDL. Each of these values was used as the peak Isometric force for each muscle, and the results are plotted in unit of mN and shown in FIG. 9.

[7] = mouse, in vivo, 2 mg/kg
Caenorhabditis elegans = conditions: reported; cited from earlier work
[8] = female mice, vs negative control

| SMILES | blood creatine kinase level [1, 8] | water intake [2] | bacterial growth inhibitory activity (bacterial growth) | grip strength (grip strength of mice; 18-month-old female mice) | grip strength (grip strength of mice; 23-month-old or older female mice) | grip strength (grip strength of mice; male mice) | weight of EDL [3] | weight of SOL [3] | weight of GA [4] | weight of TA [4] | muscle twitch force (reduced with aging) [5] | muscle tetanic force (reduced with aging) [6] | water intake vs control group [7] | increase of life span of Caenorhabditis elegans (Caenorhabditis elegans) | blood creatine kinase level ([1]; 18-month-old or older mice, 2 mg/kg) |
| --- | --- | --- | --- | --- | --- | --- | --- | --- | --- | --- | --- | --- | --- | --- | --- |
| CC(C)(C)NCC(O)c1cc(Cl)c(N)c(Cl)c1 (stereo not shown) [Clenbuterol] | equal to or higher than that of the negative control | increased | – | – | – | – | – | – | – | – | – | – | – | – | – |
| Nc1ccc(S(=O)(=O)c2ccc(N)cc2)cc1 [DDS, diaminodiphenylsulfone] | significantly reduced | – | maintained | not distinct | significantly restored | increased | restored | restored | restored | restored | effectively restored | effectively restored | did not significantly differ | 20-30% | effectively decreases |
